Each structure is given as a SMILES string. “Also recorded” adds a separate entry of the source.

One data set has as its target T1, SERCA2 (Homo sapiens, UniProt P16615).
T1 construct: endogenous in cells; host or cells: HEK-293T cells, microsomal membrane vesicles (HEK-293 ER)
The experiment in a line: NADH-coupled ATPase assay on microsomal membrane vesicles from HEK-293T cells (HEK-293 ER). It is filed as biochemical. The settings on record: for SERCA2a HEK ER effect class: 10 μM (1 μM for 12b per Figure S7), microsomal membrane vesicles; for SERCA2 ATPase activity in HEK-293 ER microsomes (in words): 10 μM, vs 0.1 v/v% DMSO. An excerpt:
Cyclopropanol derivatives have a variety of biological activities including enzyme inhibition and antibacterial and anticancer properties.[47]−[50] However, there have been no published reports on cyclopropanol-containing molecules specifically acting as modulators of RyRs and/or activators of SERCA. To investigate more directly whether the compounds influence the SERCA2 activity, we performed nicotinamide adenine dinucleotide (NADH) fluorescence-coupled ATPase assay according to Radnai et al.[51] In this assay, the change in NADH coenzyme fluorescence reflects the level of the consumption of ATP, which we took as indicator of SERCA2 activity.[51],[52] ATP hydrolysis by SERCA2 is required to pump calcium ions into the SR. We assume that a higher rate of ATP hydrolysis reflects an increase in SERCA2 ATPase activity that leads to a greater pumping of calcium ions into the SR.
We observed the rate of NADH oxidation, which is coupled to ATP hydrolysis, by measuring changes in NADH intrinsic fluorescence over time after ATP injection into microsomal membranes enriched in SR vesicles isolated from mouse heart ventricles (mouse SR) and HEK-293T cells (HEK-293 ER). The presence of SERCA2 in mouse SR and HEK-293 ER of isolated microsomal vesicles was confirmed by Western blotting (Figures S5 and S6; for details see Experimental Section). The NADH fluorescence decrease was recorded on a multiwell plate reader TECAN Spark 20M (λex = 380 nm, λem = 470 nm). […] Consistent with our previous experiment on HL-1 cells, we observed a strong decrease in NADH fluorescence reflecting an increase in SERCA2a activity in SR microsomes derived from mouse heart ventricles (n = 3–5) in solutions containing the tested compounds compared to the 0.1 v/v% DMSO sample (Figure 6). […] Similar results were obtained in cardiac SR vesicles from the mouse heart. […] This difference may indicate isoform-specific effects of our compound in HEK-293 cells expressing mostly SERCA2b[53] versus mouse SR vesicles containing mostly SERCA2a.[54] In both experiments, we used CDN1163 as a positive control.
Isolation of microsomal membrane vesicles from HEK-293T cells (HEK-293 ER) was performed according to Stewart et al.[61] HEK-293T cells were harvested with Trypsin/EDTA, washed twice with ice-cold PBS containing protease inhibitor cocktail (cOmplete, Roche, Mannheim, Germany), and centrifuged 800 × g for 5 min. The pellet was resuspended in ice-cold lysis buffer (1 mM EDTA, 10 mM HEPES, cOmplete, pH 7.4) and incubated on ice for 20 min. After the cells were homogenized with a tight-fitting Dounce homogenizer (10–20 strokes), an equal volume of restoration buffer (500 mM sucrose, 10 mM HEPES, cOmplete, pH 7.2) was added and the cells were homogenized again (10–20 strokes). The homogenate was centrifuged at 10,000 × g for 20 min at 4 °C. The supernatant was collected and centrifuged again for another 2 h (10^5 × g at 4 °C). Then, the pellet was carefully resuspended in resuspension buffer (250 mM sucrose, 10 mM HEPES, cOmplete, pH 7.2) on ice by pipetting the solution up and down until it was fully dissolved. The obtained solution was diluted to a protein concentration of 15–20 μg/μL with the resuspension buffer; the aliquots were snap frozen in liquid nitrogen and stored at −80 °C until usage.
To determine whether new compounds could increase the SERCA2 activity, HEK-293 microsomes (40–150 μg of total protein) or mouse ventricular microsomes (1–20 μg of total protein) were diluted in 100 μL of the assay buffer used for measurement of SERCA activity (described below) and incubated at room temperature for 5 min prior to the experiments. The measurements of SERCA2 activity were made at 28 °C by using a NADH-coupled ATPase assay as described in Radnai et al. with slight modifications.[51] Briefly, the assay buffer contained 60 mM MOPS, 120 mM KCl, 6 mM MgCl2, 1 mM EGTA, 5 mM NaN3, 0.5 mM phosphoenolpyruvate, and 1.5 mM CaCl2, pH 7.0. […]

Data set [1] in a line: Membrane permeability, PermeaPad Plate (cell-free transport model). The settings on record: for Pe: 24 h, room temperature; for Pe class (low/medium/high; poor): class word printed beside Pe, no key given. It is filed as in vitro ADME. Here is the method: Membrane permeability was assessed using PermeaPad Plate according to the manufacturing procedure (innoME GmbH, Espelkamp, Germany). Briefly, 200 μL of water was added into the acceptor plate. 200 μL of 100–500 μM test compound in water was added directly to the well membranes of the donor plate. The donor plate contains a biomimetic membrane for simulating passive mass transfer through different barriers in the body. Then, the donor plate was placed into the acceptor plate wells and incubated at room temperature for 24 h in the dark. To determine the peak absorbance of test compounds, absorbance spectra of acceptor solutions and initial solutions for each test compound were read out. The permeability rate (Pe) was calculated using the formula:
[drawing 1] , where ODA is the absorbance of acceptor solution and ODE is the absorbance of the standard solution; if the compound is able to permeabilize the membrane and fully reach equilibrium, 250 μM will be the final concentration of solution in the donor and acceptor wells. The coefficient C was calculated using the formula:
[drawing 2] , where VA is the acceptor volume (cm^3), VD is the donor volume (cm^3), the membrane area is 0.24 cm^2, and the time is 86,400 s.

T1 sequence (P16615 whole entry): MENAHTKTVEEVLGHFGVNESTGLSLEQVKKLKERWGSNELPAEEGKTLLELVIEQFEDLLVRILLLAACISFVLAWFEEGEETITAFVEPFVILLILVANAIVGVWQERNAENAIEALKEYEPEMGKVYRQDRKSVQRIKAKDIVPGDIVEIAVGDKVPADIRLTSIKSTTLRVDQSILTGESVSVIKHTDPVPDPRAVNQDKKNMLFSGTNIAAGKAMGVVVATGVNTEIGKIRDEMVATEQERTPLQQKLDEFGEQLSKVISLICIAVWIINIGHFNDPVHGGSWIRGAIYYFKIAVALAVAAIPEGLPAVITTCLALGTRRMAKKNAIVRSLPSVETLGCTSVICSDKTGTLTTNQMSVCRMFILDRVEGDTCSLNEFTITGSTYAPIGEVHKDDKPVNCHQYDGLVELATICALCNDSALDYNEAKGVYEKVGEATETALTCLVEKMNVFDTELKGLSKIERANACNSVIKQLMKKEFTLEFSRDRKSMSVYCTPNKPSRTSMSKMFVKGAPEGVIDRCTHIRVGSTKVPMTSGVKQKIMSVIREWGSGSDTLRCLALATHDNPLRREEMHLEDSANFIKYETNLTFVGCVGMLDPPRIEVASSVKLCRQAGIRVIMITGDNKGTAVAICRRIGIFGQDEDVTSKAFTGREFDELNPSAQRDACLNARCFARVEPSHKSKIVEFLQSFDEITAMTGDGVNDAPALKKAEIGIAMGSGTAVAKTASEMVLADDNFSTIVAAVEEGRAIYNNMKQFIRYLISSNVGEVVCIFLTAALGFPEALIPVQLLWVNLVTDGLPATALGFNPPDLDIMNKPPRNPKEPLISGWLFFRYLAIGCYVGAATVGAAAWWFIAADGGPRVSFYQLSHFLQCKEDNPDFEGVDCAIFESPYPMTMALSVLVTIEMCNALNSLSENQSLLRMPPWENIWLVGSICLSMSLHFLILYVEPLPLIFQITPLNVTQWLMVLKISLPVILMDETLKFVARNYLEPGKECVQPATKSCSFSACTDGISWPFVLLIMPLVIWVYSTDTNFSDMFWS

What is called EC50 is the concentration at which the effect is half-maximal. As to `COc1ccc2c(c1)CN(CCCCN(CCCCC1(O)CC1)CCCCC1(O)CC1)CCS2` [12a, 1,1′-(((4-(7-Methoxy-2,3-dihydrobenzo[1,4-f]thiazepin-4(5H)-yl)butyl)azanediyl)bis(butane-4,1-diyl))bis(cyclopropan-1-ol)], the “SERCA2a HEK ER effect class” value at SERCA2 is “++”. In addition, the EC50 at SERCA2 (ATPase activity, value, interval, read-out: SERCA2a HEK ER (EC50)) turned out to be 16 nM. Moreover, in data set [1], the Pe is 0.6 10^–6 cm/s; the “Pe class (low/medium/high; poor)” value is “poor permeability and low”.

Take `COc1ccc(SCCCNCCCCC2(O)CC2)cc1` [11c, 1-(4-((3-((4-Methoxyphenyl)thio)propyl)amino)butyl)cyclopropan-1-ol]: on SERCA2, the “SERCA2a HEK ER effect class” value is “+” and the “SERCA2 ATPase activity in HEK-293 ER microsomes (in words)” value (“SERCA2 ATPase activity” for short) was “significant activation of SERCA2 ATPase”. In data set [1], the Pe is reported as 6.9 10^–6 cm/s and the “Pe class (low/medium/high; poor)” value is given as “high”.

Turning to `COc1ccc2c(c1)CN(CCCCC1(O)CC1)CCS2` [11d, 1-(4-(7-Methoxy-2,3-dihydrobenzo[1,4-f]thiazepin-4(5H)-yl)butyl)cyclopropan-1-ol], at SERCA2, the “SERCA2a HEK ER effect class” value is listed as “+” and the “SERCA2 ATPase activity” value is listed as “significant activation of SERCA2 ATPase; also recorded: slight”. Besides, in data set [1], the Pe was 3.6 10^–6 cm/s and the “Pe class (low/medium/high; poor)” value was “high”.

As to `COc1ccc(OCCCNCCCCC2(O)CC2)cc1` [11b, 1-(4-((3-(4-Methoxyphenoxy)propyl)amino)butyl)cyclopropan-1-ol], on SERCA2, the “SERCA2 ATPase activity” value was “did not evoke a significant increase in ATPase activity”. For the same molecule, in data set [1], the Pe is on record as 4.0 10^–6 cm/s and the “Pe class (low/medium/high; poor)” value was “high”.

In the case of `COc1ccc2c(c1)CN(CCCCNCCCCC1(O)CC1)CCS2` [11a, 1-(4-((4-(7-Methoxy-2,3-dihydrobenzo[1,4-f]thiazepin-4(5H)-yl)butyl)amino)butyl)cyclopropan-1-ol], the “SERCA2 ATPase activity” value on SERCA2 was “did not evoke a significant increase in ATPase activity; also recorded: could not detect SERCA2 activation”. In data set [1], the Pe is on record as 0.8 10^–6 cm/s; the “Pe class (low/medium/high; poor)” value was “poor permeability and low”.

As for `COc1ccc2c(c1)CN(Cc1ccc(C(=O)O)cc1)CCS2` [ARM210, reference compound], at SERCA2, the “SERCA2a HEK ER effect class” value was “+” and the “SERCA2 ATPase activity” value was “significant activation of SERCA2 ATPase”. Besides, in data set [1], the Pe is listed as 6.8 10^–6 cm/s and the “Pe class (low/medium/high; poor)” value was “high”.

Take `COc1ccc(SCCCN(CCCCC2(O)CC2)CCCCC2(O)CC2)cc1` [12c, 1,1′-(((3-((4-Methoxyphenyl)thio)propyl)azanediyl)bis(butane-4,1-diyl))bis(cyclopropan-1-ol)]: at SERCA2, the “SERCA2a HEK ER effect class” value was “+”. Also, in data set [1], the Pe is reported as 3.6 10^–6 cm/s and the “Pe class (low/medium/high; poor)” value is reported as “high”.

The values above are taken from publication PMC10726367 (Journal of Medicinal Chemistry, 2023).
